Source: patent publication US11578072B2, “Spiro-lactam NMDA receptor modulators and uses thereof” (Aptinyx Inc., priority 2018, dated 2023)

What was measured:
[1] = Microsomal stability (Human); format: in vitro ADME; settings: human microsomes, after 60 minutes
Method: (§1) Microsomal stability of disclosed compounds was investigated. The following table indicates the percent of compound remaining after 60 minutes.

[2] = target: T1, NMDAR2D (Homo sapiens, UniProt O15399+Q05586); experiment: NMDAR agonist assay, [3H]MK-801 binding, NMDAR2D expressing HEK cell membranes; format: biochemical; settings: 50 μM glutamate, read-out: NMDAR2D B: log EC50 (converted)
T1 construct: expressed in transfected cells; host or cells: HEK cells (membrane extract)
T1 sequence (O15399 28-1336, species assumed, other chains not shown): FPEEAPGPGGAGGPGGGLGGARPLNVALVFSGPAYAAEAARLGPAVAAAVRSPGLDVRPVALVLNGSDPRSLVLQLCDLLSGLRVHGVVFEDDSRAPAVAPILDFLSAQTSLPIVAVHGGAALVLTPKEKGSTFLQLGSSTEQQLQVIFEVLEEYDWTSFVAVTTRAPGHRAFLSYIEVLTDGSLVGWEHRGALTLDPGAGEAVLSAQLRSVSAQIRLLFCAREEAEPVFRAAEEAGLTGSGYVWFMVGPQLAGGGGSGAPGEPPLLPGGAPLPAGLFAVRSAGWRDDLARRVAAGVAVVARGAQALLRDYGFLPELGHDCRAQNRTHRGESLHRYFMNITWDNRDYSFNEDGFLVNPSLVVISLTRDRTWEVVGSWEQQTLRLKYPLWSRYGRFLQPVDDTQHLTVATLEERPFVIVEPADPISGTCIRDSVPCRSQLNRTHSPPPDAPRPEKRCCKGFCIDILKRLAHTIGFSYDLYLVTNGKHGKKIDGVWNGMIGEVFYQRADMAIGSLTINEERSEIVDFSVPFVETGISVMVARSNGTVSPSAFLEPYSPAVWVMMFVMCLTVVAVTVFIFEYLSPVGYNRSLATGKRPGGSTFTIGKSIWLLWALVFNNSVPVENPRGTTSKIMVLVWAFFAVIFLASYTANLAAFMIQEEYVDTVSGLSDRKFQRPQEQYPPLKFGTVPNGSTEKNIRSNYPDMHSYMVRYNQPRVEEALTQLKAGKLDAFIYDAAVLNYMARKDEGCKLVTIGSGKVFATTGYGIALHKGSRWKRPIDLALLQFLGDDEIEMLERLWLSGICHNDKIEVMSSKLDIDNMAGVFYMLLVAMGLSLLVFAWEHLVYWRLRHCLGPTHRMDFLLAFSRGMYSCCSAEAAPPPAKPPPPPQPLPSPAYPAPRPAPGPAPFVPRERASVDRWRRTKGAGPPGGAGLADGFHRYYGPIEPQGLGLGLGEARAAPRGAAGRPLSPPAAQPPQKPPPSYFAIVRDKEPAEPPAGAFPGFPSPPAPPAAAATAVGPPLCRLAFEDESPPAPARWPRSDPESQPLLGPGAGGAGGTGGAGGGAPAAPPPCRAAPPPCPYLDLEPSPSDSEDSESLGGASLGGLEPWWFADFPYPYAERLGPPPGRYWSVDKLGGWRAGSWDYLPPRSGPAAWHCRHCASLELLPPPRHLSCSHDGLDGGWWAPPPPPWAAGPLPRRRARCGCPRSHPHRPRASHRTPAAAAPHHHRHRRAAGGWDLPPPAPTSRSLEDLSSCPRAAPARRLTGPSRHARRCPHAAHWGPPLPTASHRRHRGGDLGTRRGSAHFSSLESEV
Method: (§2) Assays were conducted as described by Moskal et al., “GLYX-13: a monoclonal antibody-derived peptide that acts as an N-methyl-D-aspartate receptor modulator,” Neuropharmacology, 49, 1077-87, 2005. These studies were designed to determine if the test compounds act to facilitate NMDAR activation in NMDAR2A, NMDAR2B, NMDAR2C or NMDAR2D expressing HEK cell membranes as measured by increases in [3H]MK-801 binding.
(§3) In the assay, 300 μg of NMDAR expressing HEK cell membrane extract protein was preincubated for 15 minutes at 25° C. in the presence of saturating concentrations of glutamate (50 μM) and varying concentrations of test compound (1×10^−15M-1×10^−7M), or 1 mM glycine. Following the addition of 0.3 μCi of [3H]MK-801 (22.5 Ci/mmol), reactions were again incubated for 15 minutes at 25° C. (nonequilibrium conditions). Bound and free [3H]MK-801 were separated via rapid filtration using a Brandel apparatus.
(§4) In analyzing the data, the DPM (disintegrations per minute) of [3H]MK-801 remaining on the filter were measured for each concentration of test compound or for 1 mM glycine. The DPM values for each concentration of a ligand (N=2) were averaged. The baseline value was determined from the best fit curve of the DPM values modeled using the GraphPad program and the log(agonist) vs. response(three parameters) algorithm was then subtracted from all points in the dataset. The % maximal [3H]MK-801 binding was then calculated relative to that of 1 mM glycine: all baseline subtracted DPM values were divided by the average value for 1 mM glycine. The EC50 and % maximal activity were then obtained from the best fit curve of the % maximal [3H]MK-801 binding data modelled using the GraphPad program and the log(agonist) vs. response(three parameters) algorithm.
(§5) The tables below summarize the results for the wild type NMDAR agonists NMDAR2A, NMDAR2B, NMDAR2C, and NMDAR2D, and whether the compound is not an agonist (−), is an agonist (+), or is a strong agonist (++), where column A is based on the % maximal [3H]MK-801 binding relative to 1 mM glycine (−=0; <100%=+; and >100%=++); and column B is based on log EC50 values (0=−; >1×10^−9 M (e.g., −8)=+; and <1×10^−9 M (e.g., −10)++).

[3] = target: T2, NMDAR2D (Homo sapiens, UniProt O15399); experiment: as above; format: biochemical; settings: 50 μM glutamate
T2 construct: expressed in transfected cells; host or cells: HEK cells (membrane extract)
T2 sequence (O15399 28-1336, species assumed, other chains not shown): as above
Method: as §2, §3, §4, §5

[4] = target: T3, NMDAR2A (Homo sapiens, UniProt Q12879); experiment: NMDAR agonist assay, [3H]MK-801 binding, NMDAR2A expressing HEK cell membranes; format: biochemical; set-up: key to NMDAR2A B: log EC50: 0=−; >1×10^−9 M (e.g., −8)=+; <1×10^−9 M (e.g., −10)++; settings: 50 μM glutamate; for EC50: read-out: NMDAR2A B: log EC50 (converted)
T3 construct: expressed in transfected cells; host or cells: HEK cells (membrane extract)
T3 sequence (Q12879 23-1464, species assumed, other chains not shown): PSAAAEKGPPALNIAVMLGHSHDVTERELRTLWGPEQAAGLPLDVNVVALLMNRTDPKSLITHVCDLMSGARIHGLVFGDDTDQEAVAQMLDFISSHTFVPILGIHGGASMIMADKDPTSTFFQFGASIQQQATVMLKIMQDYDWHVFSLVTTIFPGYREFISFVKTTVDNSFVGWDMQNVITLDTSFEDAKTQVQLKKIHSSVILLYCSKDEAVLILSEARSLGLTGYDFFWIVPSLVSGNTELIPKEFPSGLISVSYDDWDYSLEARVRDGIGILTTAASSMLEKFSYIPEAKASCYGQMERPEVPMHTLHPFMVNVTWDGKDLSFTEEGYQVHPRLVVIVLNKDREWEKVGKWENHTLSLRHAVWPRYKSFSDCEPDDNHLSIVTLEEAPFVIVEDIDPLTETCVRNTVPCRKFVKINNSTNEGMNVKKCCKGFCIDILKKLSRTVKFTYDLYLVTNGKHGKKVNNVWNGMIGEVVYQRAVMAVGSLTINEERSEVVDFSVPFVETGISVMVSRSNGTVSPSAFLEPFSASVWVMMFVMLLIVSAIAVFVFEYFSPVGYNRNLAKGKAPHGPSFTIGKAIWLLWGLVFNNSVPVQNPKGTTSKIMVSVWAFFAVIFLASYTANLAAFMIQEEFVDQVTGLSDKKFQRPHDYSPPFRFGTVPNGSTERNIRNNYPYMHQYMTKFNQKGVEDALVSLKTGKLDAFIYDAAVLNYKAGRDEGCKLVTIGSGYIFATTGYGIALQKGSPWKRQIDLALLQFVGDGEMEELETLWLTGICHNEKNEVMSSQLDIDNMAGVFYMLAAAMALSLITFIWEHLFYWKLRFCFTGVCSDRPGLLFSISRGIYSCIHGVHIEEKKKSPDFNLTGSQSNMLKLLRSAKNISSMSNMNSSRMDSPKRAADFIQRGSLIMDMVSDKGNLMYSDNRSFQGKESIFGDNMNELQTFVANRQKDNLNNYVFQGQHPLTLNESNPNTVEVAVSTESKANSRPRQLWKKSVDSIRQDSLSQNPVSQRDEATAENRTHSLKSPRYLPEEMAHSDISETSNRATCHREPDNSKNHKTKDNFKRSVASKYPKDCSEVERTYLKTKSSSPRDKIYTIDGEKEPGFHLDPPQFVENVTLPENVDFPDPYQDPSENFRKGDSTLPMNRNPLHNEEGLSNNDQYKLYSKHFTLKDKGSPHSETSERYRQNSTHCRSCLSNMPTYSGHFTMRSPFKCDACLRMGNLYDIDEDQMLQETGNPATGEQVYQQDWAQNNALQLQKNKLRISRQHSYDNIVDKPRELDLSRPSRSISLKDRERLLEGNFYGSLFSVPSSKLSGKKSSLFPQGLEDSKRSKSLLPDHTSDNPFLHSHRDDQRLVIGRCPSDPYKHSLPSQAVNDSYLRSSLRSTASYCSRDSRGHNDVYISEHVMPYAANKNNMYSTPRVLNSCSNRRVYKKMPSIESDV
Method: as §2, §3, §4, §5

[5] = Oral pharmacokinetics in rats (plasma, brain, CSF); format: in vivo, Sprague Dawley rats; settings: rat, oral gavage, 10 mg/kg; for bioavailability / AUC(0-t) / Cmax / Tmax: Sprague Dawley, plasma
Method: In another experiment, Sprague Dawley rats were dosed per os (oral gavage) using a normal saline formulation containing 10 mg/kg of the compounds identified in the table below. Plasma, brain, and CSF samples were analyzed at various time points over a 24 hour period. The table below summarizes the results of the oral pharmacokinetics, where the first three values (Tmax, Cmax and AUClast) are plasma values.

[6] = IV pharmacokinetics in rats; settings: Sprague Dawley, in vivo, rat, 2 mg/kg, normal saline; for Vd: read-out: Vss
Method: Sprague Dawley rats were dosed intravenously using a normal saline formulation containing 2 mg/kg of the compounds identified in the below table. The table below summarizes the results of the IV pharmacokinetics.

[7] = Plasma stability (Human); format: in vitro ADME; settings: after 60 minutes
Method: (§6) Plasma stability of disclosed compounds was investigated. The following table indicates the percent of compound remaining after 60 minutes.

[8] = target: T4, NMDAR2B (Homo sapiens, UniProt Q13224); experiment: NMDAR agonist assay, [3H]MK-801 binding, NMDAR2B expressing HEK cell membranes; format: biochemical; settings: 50 μM glutamate; for EC50: read-out: NMDAR2B B: log EC50 (converted)
T4 construct: expressed in transfected cells; host or cells: HEK cells (membrane extract)
T4 sequence (Q13224 27-1484, species assumed, other chains not shown): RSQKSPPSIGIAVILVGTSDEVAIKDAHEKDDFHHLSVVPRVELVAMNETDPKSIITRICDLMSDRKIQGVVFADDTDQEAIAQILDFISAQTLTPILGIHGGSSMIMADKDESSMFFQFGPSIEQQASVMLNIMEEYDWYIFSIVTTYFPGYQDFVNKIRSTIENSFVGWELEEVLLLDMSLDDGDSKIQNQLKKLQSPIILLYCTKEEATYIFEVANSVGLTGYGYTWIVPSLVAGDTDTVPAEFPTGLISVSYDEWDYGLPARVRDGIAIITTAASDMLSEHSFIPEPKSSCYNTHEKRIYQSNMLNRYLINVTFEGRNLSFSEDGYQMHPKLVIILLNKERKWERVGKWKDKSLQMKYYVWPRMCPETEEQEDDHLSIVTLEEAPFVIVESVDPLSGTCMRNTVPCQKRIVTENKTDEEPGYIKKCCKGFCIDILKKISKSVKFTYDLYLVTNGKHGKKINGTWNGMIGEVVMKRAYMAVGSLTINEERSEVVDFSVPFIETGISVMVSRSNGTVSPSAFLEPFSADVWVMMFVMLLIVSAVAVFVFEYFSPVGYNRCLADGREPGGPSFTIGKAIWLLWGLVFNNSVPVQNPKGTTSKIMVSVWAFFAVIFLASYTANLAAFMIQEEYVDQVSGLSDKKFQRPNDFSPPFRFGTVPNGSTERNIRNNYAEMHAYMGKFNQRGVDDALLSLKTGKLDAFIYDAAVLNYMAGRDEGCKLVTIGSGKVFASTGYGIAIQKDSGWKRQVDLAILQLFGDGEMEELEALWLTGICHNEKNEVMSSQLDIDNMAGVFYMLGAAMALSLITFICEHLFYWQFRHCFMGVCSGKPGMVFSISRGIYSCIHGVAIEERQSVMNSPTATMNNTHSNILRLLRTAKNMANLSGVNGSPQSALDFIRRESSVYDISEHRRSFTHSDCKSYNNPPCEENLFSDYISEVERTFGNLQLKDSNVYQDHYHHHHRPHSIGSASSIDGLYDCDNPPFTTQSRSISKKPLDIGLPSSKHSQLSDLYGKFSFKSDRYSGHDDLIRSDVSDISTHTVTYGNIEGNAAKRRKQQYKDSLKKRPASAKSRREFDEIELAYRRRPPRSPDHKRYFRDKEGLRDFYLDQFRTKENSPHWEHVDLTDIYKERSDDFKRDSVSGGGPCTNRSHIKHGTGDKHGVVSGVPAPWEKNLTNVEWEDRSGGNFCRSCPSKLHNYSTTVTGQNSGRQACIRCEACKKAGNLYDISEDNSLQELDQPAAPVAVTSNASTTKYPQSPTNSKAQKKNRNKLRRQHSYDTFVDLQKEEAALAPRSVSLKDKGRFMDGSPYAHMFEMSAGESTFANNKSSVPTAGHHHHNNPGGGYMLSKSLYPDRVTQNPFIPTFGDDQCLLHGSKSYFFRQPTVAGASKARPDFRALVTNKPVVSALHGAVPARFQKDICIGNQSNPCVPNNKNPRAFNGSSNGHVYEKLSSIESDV
Method: as §2, §3, §4, §5

[9] = Microsomal stability (Rat); format: in vitro ADME; settings: rat microsomes, after 60 minutes
Method: as §1

[10] = Plasma stability (Rat); format: in vitro ADME; settings: after 60 minutes
Method: as §6

[11] = system: Sprague Dawley rats; experiment: Bennett nerve injury assay (mechanical analgesia, paw withdrawal threshold); format: in vivo; settings: 150 mg/kg PO
Method: The Bennett model of mechanical analgesia is used to assess the analgesic effects of compounds as measured by paw withdrawal threshold. Bennett G J, Xie Y K, “A peripheral mononeuropathy in rat that produces disorders of pain sensation like those seen in man,” Pain 33:87-107, 1988. […] Vehicle animals receive the surgery and then receive vehicle rather than test compound. Animals were tested 1 hr, 24 h and 1 wk post-test compound or vehicle administration.
Male 2-3 month old Sprague Dawley rats were used. Harlan was the supplier for all studies. Rats were housed in Lucite cages with aspen wood chip bedding, maintained on a 12:12 light:dark cycle (lights on at 5 AM), and given ad libitum access to Purina lab chow (USA) and tap water throughout the study.
Rats were anesthetized using inhaled isoflurane (2.5%). Sciatic nerve chronic constriction nerve injury surgery was performed as previously described (Bennett and Xie, 1988). An incision (˜1.5 cm in length) was made with a scalpel blade dorsally through skin on the right hind limb, parallel and posterior to femur. Using a small pointed hemostat, the biceps femoris and gluteus superficialis muscles were separated. Using curved blunt forceps, the common sciatic nerve was isolated and exposed. For the mechanical analgesia studies, the whole sciatic nerve was ligated. Using hemostats/forceps and chromic gut (5-0), the nerve was loosely ligated with a square knot; 3 ligatures, 1 mm apart were placed on the nerve. […] Testing occurred approximately 2 weeks post-surgery.
During testing, rats were acclimated to the surface of a suspended wire mesh grid (1 cm×1 cm, with the wire being 0.3 cm in diameter) for 15-20 min. Starting from the smallest, each Von Frey filament was pressed perpendicularly to the plantar surface of the affected (ipsilateral) hind paw until slightly bent and then held for 6 second. If an obvious hind paw withdrawal or a flinching behavior immediately after the withdrawal of the filament was not observed, the next larger filament was used in the same manner. In case of a response, a lower filament was used. This was repeated until six responses were collected.
For all studies, animals were baselined prior to study start to test for allodynia (defined as a paw withdrawal threshold under 5). A subset of animals was tested with gabapentin (150 mg/kg, PO) to ensure at least 50% analgesia. Once it was confirmed animals were ready for study initiation, animals were balanced across groups. All study investigators were blind to treatment conditions. Animals were dosed with 0.1, 1 or 10 mg/kg of test compound via oral gavage (PO), control sets of animals were dosed with gabapentin (150 mg/kg, PO) or vehicle (0.5% Na-CMC in 0.9% sterile saline, PO). Testing occurred 1 h post-dosing with animals retested 24 hrs and 1 week post-dosing. The percent analgesia calculations for each animal were made using the following equation: % analgesia=[(log(x)−y)/((log (z)−y)]*100, where x=the paw withdrawal threshold for the drug-treated animal in grams, y=the average of the log(x) values for the vehicle treated group, and z=the paw withdrawal threshold for naïve animals in grams (historical value of 15 used). The results for Compound AD, where the percentage of analgesia is measured at 1 hour, 24 hours, and 1 week after compound administration are as follows: for 0.1 mg/kg dose: 38.7% at 1 h, 34.5% at 24 h, and 19.7% at 1 wk; for 1 mg/kg dose: 24.1% at 1 h, 26.5% at 24 h, and 13.2% at 1 wk; and for 10 mg/kg dose: 61.2% at 1 h, 45.1% at 24 h, and 39.5% at 1 wk.

Compound	Microsomal (Human): percent of compound remaining [1]	NMDAR2A A: % maximal [3H]MK-801 binding relative to 1 mM glycine [4]	bioavailability [5]	AUC(0-t) [5]	Cmax [5]	Tmax [5]	CSF Cmax [5]	Brain Cmax [5]	AUC(0-t) [6]	Cmax [6]	clearance [6]	half-life [6]	Vd [6]	Plasma (Human): percent of compound remaining [7]	NMDAR2B A: % maximal [3H]MK-801 binding relative to 1 mM glycine [8]	EC50 [8]	Microsomal (Rat): percent of compound remaining [9]	Plasma (Rat): percent of compound remaining [10]	EC50 [4]	further results
O=C(O)C(F)(F)F.O=C1NCCCC12CCNCC2 [AA, 2,9-diazaspiro[5.5]undecan-1-one]	96%	− (−=0)	18%	1020 ng·h/mL	325 ng/mL	2.11 h	12 ng/mL	0 ng/mL	1160 ng·h/mL	2660 ng/mL	28.4 mL/min/kg	2 h	1.76 L/kg	97%	+ (<100%=+)	< 1 nM	91%	84%		EC50 [2]: < 1 nM; NMDAR2D A: % maximal [3H]MK-801 binding relative to 1 mM glycine [3]: ++ (>100%=++); NMDAR2A B: log EC50 [4]: −
CC(C)(C)OC(=O)N1CCC2(CCCNC2=O)CC1 [AC, tert-butyl 1-oxo-2,9-diazaspiro[5.5]undecane-9-carboxylate]	100%	+ (<100%=+)	44%	1860 ng·h/mL	3630 ng/mL	0.25 h	261 ng/mL	298 ng/mL	845 ng·h/mL	5660 ng/mL	39.5 mL/min/kg	0.12 h	0.31 L/kg	100%	+ (<100%=+)	< 1 nM	96%	100%	> 1 nM	
O=C1NCCCCC12CCNCC2 [AG, 3,8-diazaspiro[5.6]dodecan-7-one]		+ (<100%=+)													+ (<100%=+)	< 1 nM			< 1 nM	
NCC1(CC(=O)O)CCCCC1 [gabapentin, reference compound]																				% analgesia ([11]; 1 week post-administration, control group of the study): under 5%; % analgesia ([11]; 1 wk, example (typical) control values): 0%; % analgesia ([11]; 1 h, example (typical) control values): 77%; % analgesia ([11]; 1 h post-administration, control group of the study): at least 50%; % analgesia ([11]; 24 h, example (typical) control values): 17%; % analgesia ([11]; 24 h post-administration, control group of the study): under 5%
